Reference: the RepoRT retention time repository

Test: Agilent ZORBAX 300 SB-C18, 150 × 1 mm, 3.5 µm; A: water + 0.01% heptafluorobutyric acid; B: acetonitrile + 0.01% heptafluorobutyric acid; gradient (min/%B) 0/0 100/90
Settings: stereoisomer not certain

Row | SMILES | LC retention time
1 | Cc1ccc2c(c1)C1CN(C)CCC1N2C(=O)CCCCCN1C(=O)c2ccccc2C1=O (stereo not drawn) | 10.6 min
2 | Cc1cc(C)c2c(=O)n(CC(=O)NC(C)CCc3ccccc3)c(=O)n(C)c2n1 (stereo not drawn) | 14.9 min
3 | CC(C)=C(NC(=O)c1ccccc1)C(=O)NCCc1c(C)[nH]c2ccccc12 | 12.3 min
4 | O=C(c1n[nH]c(=O)c2ccccc12)N1CCN(C(c2ccccc2)c2ccccc2)CC1 | 11.4 min
5 | O=C(O)CNC(=O)C1CCCCC1 | 8.07 min
6 | NC1=NC(=Nc2ccc(N3CCOCC3)cc2)c2ccccc21 | 9.27 min
7 | CC1(C)OCOC1=CC[N+](C)(C)C | 7.65 min
8 | CCCCCCC(N)=O | 9.68 min
9 | CC(=O)Nc1ccccc1N | 6.82 min
10 | CC(=Nc1ccc(N=Nc2ccccc2)cc1)N(C)C | 10.9 min
11 | CN(c1ccccc1)c1nc(-n2ccnc2)nc(-n2ccnc2)n1 | 11.3 min
12 | Cc1ccc(C(=O)NCc2ccco2)cc1 | 11.7 min
13 | C[N+](C)(C)c1cnc(=O)[nH]c1 | 2.5 min
14 | Cc1c(-c2nc3ccccc3[nH]2)cnn1C | 8.16 min
15 | O=c1c2n[nH]nc2cnn1-c1ccccc1 | 8.76 min
16 | CCc1ccc(C(c2c[nH]c3ccccc23)c2c[nH]c3ccccc23)cc1 | 18.2 min
17 | O=C1OC(c2c[nH]c3ccccc23)c2ccccc21 (stereo not drawn) | 12.4 min
18 | COC(=O)CCc1c(COC(C)=O)[nH]c(C(=O)OCc2ccccc2)c1C | 15.1 min
19 | CN1CCN(C(=O)c2cc(C(C)(C)C)cc(C(C)(C)C)c2)CC1 | 11.6 min
20 | CCc1ccc(C=NNC(=O)C[n+]2ccccc2)cc1 | 9.72 min
21 | Cc1ccc(-c2cnc3ccccc3n2)c(C)c1 | 17.4 min
22 | O=C1CN(C(=O)CCCc2c[nH]c3ccccc23)c2ccccc2N1 | 12 min
23 | CSC1=NC(C)(C)Cc2c(C)cccc21 | 9.67 min
24 | CC(=O)C1CCC2C3CC(C)C4=CC(=O)CCC4(C)C3C(O)CC12C (stereo not drawn) | 14.8 min
25 | Cc1cc(=O)n(-c2ccc(C(=O)O)cc2)[nH]1 | 8.05 min
26 | COCCNC(=O)Cn1c(=O)n(C)c2ccccc21 | 8.47 min

Row | SMILES | LC retention time
27 | CNc1ccccc1C | 8.19 min
28 | CC(C)(C)c1ccc(C(=O)NN=Cc2c[nH]c3ccccc23)cc1 | 14.2 min
29 | CC[N+](CC)(CC)Cc1ccccc1 | 8.32 min
30 | Nc1cccc(-c2cc3ccccc3oc2=O)c1 | 10.4 min
31 | CCOC(=O)c1ccc(NC(=O)CC(C)(C)C)cc1 | 14.8 min
32 | Nc1cccc(C(=O)O)c1N | 10.6 min
33 | CCCCCCNC(=O)c1ccc(OC(C)=O)cc1 | 13.8 min
34 | CCCCCCCCCCCCN(C)C | 13.7 min
35 | C(=Cc1cccs1)c1ccccn1 | 9.18 min
36 | O=C(CCc1ccccc1)NNC(=S)NCc1ccccc1 | 12.4 min
37 | CCC(N)CC | 7.05 min
38 | COC(=O)C1C(O)CCC2CN3CCc4c([nH]c5ccccc45)C3CC21 (stereo not drawn) | 9.64 min
39 | CC(=O)Nc1cccc2ncccc12 | 6.92 min
40 | Oc1cccc(N2Cc3ccccc3C2)c1 | 13.9 min
41 | CCC(=O)Nc1ccc(N2CCN(C(=O)C(C)C)CC2)cc1 | 9.46 min
42 | CN1C(=O)C(CC(=O)NC2CCCCC2)N(C)C1=O (stereo not drawn) | 8.55 min
43 | Cc1ccc(C=C2CN(C)CC(=Cc3ccc(C)cc3)C2=O)cc1 | 12.3 min
44 | COC(=O)Cc1ccc(N)cc1N | 7.24 min
45 | CCCCCCCCCCN(C)C | 12 min
46 | O=C(NCc1ccc(-n2cccc2)cc1)C(c1ccccc1)c1ccccc1 | 16.6 min
47 | Cc1cc(C)nc(Nc2ccccc2C)n1 | 10.7 min
48 | CN(C)CCCN1CCC(O)C2CCCCC21 (stereo not drawn) | 7.19 min
49 | NC(=O)c1ccccc1NC(=O)CN1CCCC1 | 7.36 min
50 | Cc1ccc(CNC2CCCC2)o1 | 8.53 min
51 | Nc1ccc(C(=O)O)cc1N | 5.93 min
52 | Cc1c(N=Cc2ccncc2)c(=O)n(-c2ccccc2)n1C | 8.92 min

Row | SMILES | LC retention time
53 | c1cncc(-c2cccs2)c1 | 9.08 min
54 | CC(C)=NNc1nccc2ccccc12 | 10.7 min
55 | CN(C)CCC=C1c2ccccc2C=Cc2ccccc21 | 11.6 min
56 | O=C1NC2CCCCC2NC1CC(=O)N1CCN(Cc2ccccc2)CC1 (stereo not drawn) | 7.88 min
57 | CCC(C)C(N)C(=O)N1CCCC1C(=O)NC(C(=O)O)C(C)CC (stereo not drawn) | 8.56 min
58 | CC(C)NCC(O)COc1ccc(COCCOC(C)C)cc1 (stereo not drawn) | 10 min
59 | CCCCNCCCC | 8.38 min
60 | O=C(Nc1cccnc1)c1ccc(=O)[nH]n1 | 6.84 min
61 | CCc1ccc2c(c1)c(C=O)c(C)n2C | 12.9 min
62 | Cc1ccoc1CC[N+](C)(C)C | 7.96 min
63 | O=C(O)C1(c2ccccc2)CCCCN1 (stereo not drawn) | 6.67 min
64 | NC(=O)c1ccccc1NC(=O)c1cc2c(n(-c3ccccc3)c1=O)CCCC2=O | 10.5 min
65 | C=CCC1(Nc2ccccc2)CCCCC1 | 11.3 min
66 | COc1ccc(C(=O)C=Cc2ccccc2)cc1 | 15.7 min
67 | O=C(O)CCc1nn2c3ccccc3n(CC(=O)O)c2nc1=O | 7.51 min
68 | CCNc1ccccc1C | 8.47 min
69 | Cc1nc2ccccc2[nH]1 | 7.36 min
70 | Cc1cc[n+](CCC(=O)O)c2ccccc12 | 7.41 min
71 | NCCCCC(NC(CCc1ccccc1)C(=O)[O-])C(=O)N1CCCC1C(=O)O (stereo not drawn) | 8.09 min
72 | CC1C(=O)CCN(C(C)(C)C)C1C (stereo not drawn) | 8.44 min
73 | CNCc1ccccc1 | 7.43 min
74 | CC1(C)SC2C(NC(=O)Cc3ccccc3)C(=O)N2C1C(=O)O (stereo not drawn) | 10.5 min
75 | O=c1ccoc2ccccc12 | 9.31 min
76 | Cc1cccc(-c2ccnc(=S)[nH]2)c1 | 9.59 min
77 | CCC(C)c1ccccc1NC(=S)Nc1cccnc1 (stereo not drawn) | 11 min
78 | Cn1c(O)c(Cc2ccc(OCc3ccccc3)cc2)c(=O)n(C)c1=O | 15 min

Row | SMILES | LC retention time
79 | CC1(C)SC2C(NC(=O)C(N)c3ccc(O)cc3)C(=O)N2C1C(=O)O (stereo not drawn) | 7.52 min
80 | COc1ccccc1NC(=O)c1ccc(COc2ccc3c(c2)CCC3)cc1 | 19.2 min
81 | OCC1CC(O)CN1 (stereo not drawn) | 2.85 min
82 | Nc1ccc2c(c1)nc(-c1ccccc1)c1cc(N)ccc12 | 9.3 min
83 | Cn1c2c(c(=O)[nH]c1=O)C(c1ccccc1)C1=C(N2)c2ccccc2C1=O (stereo not drawn) | 10.6 min
84 | NC1CCCC1 | 6.51 min
85 | Cc1nn(-c2ccc(C(=O)N3CCN(C)CC3)cc2)c(=O)c2ccccc12 | 8.65 min
86 | O=C1OCc2cc(-n3cccc3)ccc21 | 11.8 min
87 | Cc1cccc2cc[nH]c12 | 12.6 min
88 | COc1ccc(C=Cc2nc(=O)c3ccccc3o2)cc1 | 13.8 min
89 | c1ccc2ncncc2c1 | 7.73 min
90 | c1cc(N2CCCC2)ccn1 | 7.65 min
91 | CN(C)C(=N)N(C)C | 6.49 min
92 | CCn1cc(CCO)c2ccccc21 | 11.7 min
93 | NCc1cccc(CN)c1 | 7.04 min
94 | Cc1cc(C)c(N)c(C(=O)O)c1 | 10.4 min
95 | c1ccc(Cc2nc3ccccc3[nH]2)cc1 | 9.23 min
96 | O=C(O)C1Cc2ccccc2CN1C(=O)c1ccccc1 (stereo not drawn) | 11.2 min
97 | C#Cc1cncn1C | 6.39 min
98 | CCN(CC)c1ccc(C2Nc3ccccc3C(CC)(CC)O2)cc1 (stereo not drawn) | 13.8 min
99 | CC1CC(C)(C)Nc2ccc(O)cc21 (stereo not drawn) | 8.04 min
100 | O=C(O)CCCCC1SCC2NC(=O)NC21 (stereo not drawn) | 7.67 min
101 | O=C(O)CC(CNC(=O)CCCCCN1C(=O)c2ccccc2C1=O)c1ccccc1 (stereo not drawn) | 11.6 min
102 | C=CCN(CC=C)CC=C | 7.98 min
103 | Cc1ccc2[nH]c(-c3ccccc3)cc2c1 | 16.8 min
104 | Cc1ncnc2nc[nH]c12 | 5.87 min

Row | SMILES | LC retention time
105 | C#CC(C)(C)N | 6.38 min
106 | OC1CCNCC1 | 2.8 min
107 | CN(C)c1ccncc1N | 7.03 min
108 | O=c1cc[nH]c(=O)[nH]1 | 1.47 min
109 | COc1ccc2ccccc2c1C=NNC(=O)C(c1ccccc1)c1ccccc1 | 17.5 min
110 | CC(C)N(C)C | 5.87 min
111 | COc1cccc(OCCN)c1 | 8.13 min
112 | Cn1c(=O)n(-c2cccc(N)c2)c(=O)n1C | 7.06 min
113 | O=C(CCc1ccccc1)NN=Cc1ccccc1O | 13.3 min
114 | O=C1CCNc2cc3ccccc3cc21 | 12.1 min
115 | Cc1ccccc1N1C(=O)c2ccc(C(=O)O)cc2C1=O | 12 min
116 | CC(C)(C)NCC(O)COc1cccc2c1CCC(=O)N2 (stereo not drawn) | 8.4 min
117 | COC(=O)c1ccccc1-c1cc(C(=O)OC)c2ccccc2n1 | 15 min
118 | COc1ccccc1NC(=O)C(=Cc1ccc(OC)c(OC)c1)NC(=O)c1ccccc1 | 13.5 min
119 | CCc1nc2ccccc2[nH]1 | 7.88 min
120 | CC1(C)CC(NC(=O)NC2CCCCC2)CC(C)(C)N1 | 8.78 min
121 | NCC(=O)c1ccccc1 | 7.35 min
122 | CN(CCNc1ccccc1)C(N)=O | 7.86 min
123 | O=C(Nc1cccnc1)c1cnccn1 | 7.28 min
124 | CSc1cccc2cccnc12 | 11 min
125 | Cc1[nH]c(=S)[nH]c1CC(C)C | 9.02 min
126 | CNC(=S)Nc1ccc2c(c1)CCCC2 | 12.5 min
127 | CCN(CC)c1nc(-c2ccncc2)nc2ccccc12 | 10.2 min
128 | O=C(Nc1ccc2[nH]c(=O)[nH]c2c1)c1ccco1 | 7.75 min
